# Measured values as given in US7462600B2, “Macrolides” (Pfizer Inc, priority 2004, dated 2008).
# Like-named read-outs stand apart in the source and are kept apart here.
# Experiments:
# Assay type in all cases: cell-based
# [1] = system: Streptococcus pyogenes 1079; test: MIC, microtiter broth dilution (NCCLS M100-S14), S. pyogenes 1079 (ermB)
# Summary of the method: (§1)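 Compounds were first dissolved in DMSO (40 mg/ml stock), then tested by broth dilution in microtiter trays. MICs were interpreted using the 14th Informational Supplement (M100-S14) criteria.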
# [2] = system: Streptococcus pneumoniae 1175; settings: microtiter broth dilution
# Summary of the method: as §1
# [3] = system: Streptococcus pneumoniae 1095; settings: microtiter broth dilution
# Summary of the method: as §1
# [4] = system: Haemophilus influenzae 1218; test: MIC, microtiter broth dilution (NCCLS M100-S14), H. influenzae 1218 (susceptible)
# Summary of the method: as §1
# [5] = system: Streptococcus pneumoniae 1016; test: MIC, microtiter broth dilution (NCCLS M100-S14), S. pneumoniae 1016 (susceptible)
# Summary of the method: as §1
# [6] = H. influenzae 1218 (susceptible)
# [7] = S. pneumoniae 1016 (susceptible)
Compound,MIC S. pyogenes 1079 ([1]; S. pyogenes 1079 (ermB)),MIC S. pneumo. 1175 ([2]; S. pneumoniae 1175 (mefA)),MIC S. pneumo. 1095 ([3]; S. pneumoniae 1095 (ermB)),"MIC H. influenzae 1218 [4, 6]","MIC S. pneumo. 1016 [5, 7]",MIC S. pyogenes 1079 ([1]; Streptococcus pyogenes 1079),MIC S. pneumo. 1175 ([2]; Streptococcus pneumoniae 1175),MIC S. pneumo. 1095 ([3]; Streptococcus pneumoniae 1095),MIC H. influenzae 1218 ([4]; Haemophilus influenzae 1218),MIC S. pneumo. 1016 ([5]; Streptococcus pneumoniae 1016)
CCC1OC(=O)C(C)C(=O)C(C)C(OC2OC(C)CC(N(C)C)C2O)C(C)(OC)CC(C)C(=O)C(C)C2N(CC3CCCN3Cc3cccc4cccnc34)C(=O)OC12C (stereo not drawn) [10.05],>64.00 µg/mL,0.12 µg/mL,<0.06 µg/mL,4 µg/mL,<0.06 µg/mL,–,–,–,–,–
CCC1OC(=O)C(C)C(=O)C(C)C(OC2OC(C)CC(N(C)C)C2O)C(C)(OC)CC(C)C(=O)C(C)C2N(CC3CCN(C(=O)c4cnc5ccccc5c4)C3)C(=O)OC12C (stereo not drawn) [13.10],>64.00 µg/mL,0.25 µg/mL,>64.00 µg/mL,4 µg/mL,<0.06 µg/mL,–,–,–,–,–
"CCC1OC(=O)C(C)C(=O)C(C)C(OC2OC(C)CC(N(C)C)C2O)C(C)(OC)CC(C)C(=O)C(C)C2N(C3CN(Cc4c(Cl)cnc5ncccc45)C3)C(=O)OC12C (stereo not drawn) [Example 1.76, 3-descladinosyl-11,12-dideoxy-6-O-methyl-3-oxo-12,11-(oxycarbonyl-(1-(3-chloro-1,8-naphthyridine-4-methyl)-azetidin-3-yl)-imino)-erythromycin A]",–,–,–,–,–,0.125 µg/mL,<0.063 µg/mL,<0.063 µg/mL,0.5 µg/mL,<0.063 µg/mL
CCC1OC(=O)C(C)C(=O)C(C)C(OC2OC(C)CC(N(C)C)C2O)C(C)(OC)CC(C)C(=O)C(C)C2N(CC3C4CN(Cc5cccnc5)CC43)C(=O)OC12C (stereo not drawn) [16.04],>100.00 µg/mL,>100.00 µg/mL,3.12 µg/mL,0.5 µg/mL,0.03 µg/mL,–,–,–,–,–
"CCC1OC(=O)C(C)(F)C(=O)C(C)C(OC2OC(C)CC(N(C)C)C2O)C(C)(OC)CC(C)C(=O)C(C)C2N(CC3CCCN3C(=O)c3nc4ccccc4[nH]3)C(=O)OC12C [Example 10.27, 3-descladinosyl-11,12-dideoxy-2-fluoro-6-O-methyl-3-oxo-12,11-(oxycarbonyl-(1-(1H-benzo[d]imidazole-2-carboxyl)-((R)-pyrrolidin-2-yl)-methyl)-imino)-erythromycin A]",8 µg/mL,0.25 µg/mL,<0.06 µg/mL,2 µg/mL,<0.06 µg/mL,–,–,–,–,–
"CCC1OC(=O)C(C)C(=O)C(C)C(OC2OC(C)CC(N(C)C)C2O)C(C)(OC)CC(C)C(=O)C(C)C2N(C3CN(S(=O)(=O)c4cccc5nsnc45)C3)C(=O)OC12C (stereo not drawn) [Example 3.06, 3-descladinosyl-11,12-dideoxy-6-O-methyl-3-oxo-12,11-(oxycarbonyl-(1-(benzo[1,2,5]thiadiazole-4-sulfonyl)-azetidin-3-yl)-imino)erythromycin A]",–,–,–,–,–,1 µg/mL,<0.06 µg/mL,<0.06 µg/mL,0.12 µg/mL,<0.06 µg/mL
CCC1OC(=O)C(C)C(=O)C(C)C(OC2OC(C)CC(N(C)C)C2O)C(C)(OC)CC(C)C(=O)C(C)C2N(CC3CCN(Cc4cccc(OC)n4)C3)C(=O)OC12C (stereo not drawn) [11.08],>64.00 µg/mL,0.25 µg/mL,<0.06 µg/mL,0.5 µg/mL,<0.06 µg/mL,–,–,–,–,–
CCC1OC(=O)C(C)C(=O)C(C)C(OC2OC(C)CC(N(C)C)C2O)C(C)(OC)CC(C)C(=O)C(C)C2N(CC3CN(C(=O)c4cccc5ncoc45)C3)C(=O)OC12C.O=CO (stereo not drawn) [4.46],–,–,–,–,–,64 µg/mL,<0.06 µg/mL,0.5 µg/mL,1 µg/mL,<0.06 µg/mL
"CCC1OC(=O)C(C)C(=O)C(C)C(OC2OC(C)CC(N(C)C)C2O)C(C)(OC)CC(C)C(=O)C(C)C2N(C3CN(S(=O)(=O)c4ccc(-n5cccn5)c(F)c4)C3)C(=O)OC12C (stereo not drawn) [Example 3.86, 3-descladinosyl-11,12-dideoxy-6-O-methyl-3-oxo-12,11-(oxycarbonyl-(1-(3-fluoro-4-(1H-pyrazol-1-yl)benzenesulfonyl)-azetidin-3-yl)-imino)-erythromycin A]",–,–,–,–,–,1 µg/mL,<0.06 µg/mL,<0.06 µg/mL,1 µg/mL,<0.06 µg/mL
CC[C@H]1OC(=O)[C@H](C)C(=O)[C@H](C)[C@@H](O[C@@H]2O[C@H](C)C[C@H](N(C)C)[C@H]2O)[C@](C)(OC)C[C@@H](C)C(=O)[C@H](C)[C@H]2N(CC3(C)CN(Cc4ccc5ncccc5c4)C3)C(=O)O[C@]12C [6.01],–,–,–,–,–,>64.00 µg/mL,0.5 µg/mL,0.5 µg/mL,1 µg/mL,<0.06 µg/mL
"CC[C@H]1OC(=O)[C@H](C)C(=O)[C@H](C)[C@@H](O[C@@H]2O[C@H](C)C[C@H](N(C)C)[C@H]2O)[C@](C)(OC)C[C@@H](C)C(=O)[C@H](C)[C@H]2N(C3CN(Cc4c(C#N)cnc5ccccc45)C3)C(=O)O[C@]12C [Example 1.73, 3-descladinosyl-11,12-dideoxy-6-O-methyl-3-oxo-12,11-(oxycarbonyl-(1-(quinoline-3-carbonitrile-4-methyl)-azetidin-3-yl)-imino)erythromycin A]",–,–,–,–,–,0.125 µg/mL,<0.063 µg/mL,<0.063 µg/mL,2 µg/mL,<0.063 µg/mL
CC[C@H]1OC(=O)[C@H](C)C(=O)[C@H](C)[C@@H](O[C@@H]2O[C@H](C)C[C@H](N(C)C)[C@H]2O)[C@](C)(OC)C[C@@H](C)C(=O)[C@H](C)[C@H]2N(CC3(O)CN(C(=O)c4ccc5cccnc5n4)C3)C(=O)O[C@]12C [7.17],>64.00 µg/mL,0.5 µg/mL,<0.06 µg/mL,1 µg/mL,<0.06 µg/mL,–,–,–,–,–
"CCC1OC(=O)C(C)C(=O)C(C)C(OC2OC(C)CC(N(C)C)C2O)C(C)(OC)CC(C)C(=O)C(C)C2N(C3CN(Cc4ccc(OC)c5ncccc45)C3)C(=O)OC12C (stereo not drawn) [Example 1.70, 3-descladinosyl-11,12-dideoxy-6-O-methyl-3-oxo-12,11-(oxycarbonyl-(1-(8-methoxyquinoline-5-methyl)-azetidin-3-yl)-imino)-erythromycin A]",–,–,–,–,–,2 µg/mL,<0.063 µg/mL,<0.063 µg/mL,1 µg/mL,<0.063 µg/mL
"CCC1OC(=O)C(C)C(=O)C(C)C(OC2OC(C)CC(N(C)C)C2O)C(C)(OC)CC(C)C(=O)C(C)C2N(C3CN(C(=O)Nc4ccc5ncccc5c4)C3)C(=O)OC12C (stereo not drawn) [Example 2.05, N-(quinolin-6-yl) aminocarbonyl]",–,–,–,–,–,64 µg/mL,<0.06 µg/mL,16 µg/mL,0.5 µg/mL,<0.06 µg/mL
"CCC1OC(=O)C(C)C(=O)C(C)C(OC2OC(C)CC(N(C)C)C2O)C(C)(OC)CC(C)C(=O)C(C)C2N(C3CN(Cc4cnc5ncccc5c4)C3)C(=O)OC12C (stereo not drawn) [Example 1.17, (1,8-naphthyridin-3-yl)methyl]",–,–,–,–,–,>64.00 µg/mL,0.25 µg/mL,<0.06 µg/mL,0.12 µg/mL,<0.06 µg/mL
